Data: ChEMBL document CHEMBL1201862, “PubChem BioAssay data set” (2004)
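Cells were grown in 96-well plates and exposed to each compound for 48 hours at five concentrations; endpoints were interpolated linearly between bracketing concentrations, or set to the highest concentration if not reached. Here, GI50 denotes the concentration required for 50% inhibition of growth.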 Activity calls are given as the source filed them. No stated cut-off is given here; in the data, active = GI50 up to about 1.1 µM and inactive = higher.

Columns and labels:
Test in all cases: inhibition of tumour cell growth, NCI panel, 48 h
OVCAR-5 = test system: OVCAR-5
UACC-257 = test system: UACC-257
SW-620 = test system: SW-620
A549 = test system: A549
OVCAR-3 = test system: OVCAR-3
NCI-H460 = test system: NCI-H460
SF-295 = test system: SF-295
SNB-75 = test system: SNB-75
NCI-H226 = test system: NCI-H226
KM12 = test system: KM12
SK-MEL-28 = test system: SK-MEL-28
K562 = test system: K562
SK-MEL-5 = test system: SK-MEL-5
Malme-3M = test system: Malme-3M
MOLT-4 = test system: MOLT-4
ACHN = test system: ACHN
NCI-H522 = test system: NCI-H522
SK-OV-3 = test system: SK-OV-3

Measured: GI50

CSCSCC(CO)NC(=O)/C=C/c1c(C)nc(O)nc1O (configuration not stated)
inactive: OVCAR-5 > 100 µM | UACC-257 > 100 µM | SW-620 > 100 µM | A549 > 100 µM | OVCAR-3 26.4 µM | NCI-H460 > 100 µM | SF-295 > 100 µM | SNB-75 > 100 µM | NCI-H226 > 100 µM | KM12 > 100 µM | SK-MEL-28 > 100 µM | K562 39.7 µM | SK-MEL-5 > 100 µM | Malme-3M > 100 µM | MOLT-4 96.6 µM | ACHN > 100 µM

Cc1ccc(C)c(N2C(=O)C(=O)C(c3nc4ccccc4o3)/C(=N/N)C2=O)c1 (configuration not stated)
inactive: NCI-H522 > 100 µM | SK-OV-3 > 100 µM | UACC-257 > 100 µM | SW-620 > 100 µM | A549 > 100 µM | OVCAR-3 > 100 µM | NCI-H460 > 100 µM | SF-295 > 100 µM | SNB-75 95.7 µM | NCI-H226 > 100 µM | KM12 > 100 µM | SK-MEL-28 > 100 µM | SK-MEL-5 > 100 µM | Malme-3M > 100 µM | MOLT-4 > 100 µM | ACHN > 100 µM

C/C=C(/I)CBr
inactive: NCI-H522 2.03 µM | OVCAR-5 > 10 µM | SK-OV-3 30.8 µM | SW-620 13.6 µM | A549 24.3 µM | NCI-H460 18.9 µM | SNB-75 > 10 µM | NCI-H226 20.6 µM | SK-MEL-28 21 µM | K562 5.15 µM | SK-MEL-5 15.5 µM | Malme-3M 16 µM | MOLT-4 15.9 µM | ACHN 21.8 µM

O=C(c1ccc(Cl)cc1)c1ccc(OCC(=O)N2CCN(c3ccccc3)CC2)cc1
inactive: OVCAR-5 > 100 µM | SK-OV-3 > 100 µM | UACC-257 61 µM | SW-620 > 100 µM | A549 > 100 µM | OVCAR-3 > 100 µM | NCI-H460 > 100 µM | SF-295 > 100 µM | SNB-75 > 100 µM | NCI-H226 > 100 µM | KM12 > 100 µM | SK-MEL-28 > 100 µM | K562 > 100 µM | SK-MEL-5 41.6 µM | Malme-3M > 100 µM | MOLT-4 62.7 µM | ACHN > 100 µM

CC1=NN=C(NCCN(C)C)C/C1=C/c1ccccc1Cl
inactive: OVCAR-5 79.1 µM | SK-OV-3 > 100 µM | UACC-257 23.5 µM | SW-620 > 100 µM | A549 > 100 µM | OVCAR-3 > 100 µM | NCI-H460 > 100 µM | SF-295 > 100 µM | SNB-75 20 µM | KM12 > 100 µM | SK-MEL-28 59.2 µM | SK-MEL-5 48.6 µM | Malme-3M 27.6 µM | ACHN > 100 µM

CCOC(=O)c1ncn2c1[nH]c(=O)c1ccccc12
inactive: NCI-H522 > 100 µM | OVCAR-5 > 100 µM | SW-620 > 100 µM | A549 > 100 µM | OVCAR-3 > 100 µM | NCI-H460 > 100 µM | SF-295 > 100 µM | SNB-75 11.9 µM | NCI-H226 > 100 µM | KM12 > 100 µM | SK-MEL-28 > 100 µM | K562 > 100 µM | SK-MEL-5 > 100 µM | Malme-3M > 100 µM | MOLT-4 > 100 µM | ACHN > 100 µM

CC(Oc1cc2oc(=O)cc(-c3ccccc3)c2cc1Cl)C(=O)O (configuration not stated)
inactive: NCI-H522 > 100 µM | SK-OV-3 > 100 µM | UACC-257 > 100 µM | SW-620 > 100 µM | A549 > 100 µM | OVCAR-3 > 100 µM | NCI-H460 > 100 µM | SF-295 > 100 µM | SNB-75 > 100 µM | NCI-H226 > 100 µM | KM12 > 100 µM | SK-MEL-28 > 100 µM | K562 > 100 µM | SK-MEL-5 > 100 µM | Malme-3M > 100 µM | MOLT-4 > 100 µM | ACHN > 100 µM

O=C1C=C(c2c(O)ccc3ccccc23)c2cc(O)ccc2C1=O
inactive: OVCAR-5 21.1 µM | SK-OV-3 23.5 µM | UACC-257 17.9 µM | SW-620 18.2 µM | A549 18.2 µM | OVCAR-3 10.7 µM | NCI-H460 20.3 µM | SF-295 18.5 µM | SNB-75 25.4 µM | NCI-H226 20.9 µM | KM12 16.1 µM | SK-MEL-28 20.7 µM | K562 > 100 µM | SK-MEL-5 15.1 µM | Malme-3M 19.2 µM | MOLT-4 3.09 µM | ACHN 17.4 µM

COc1ccc(/C=C/C(=O)c2c(-c3ccccc3)nn(C)c(=O)c2N2CC2C)cc1 (configuration not stated)
inactive: NCI-H522 22.7 µM | OVCAR-5 37.6 µM | SK-OV-3 30.2 µM | UACC-257 42.2 µM | SW-620 26.4 µM | A549 43.2 µM | OVCAR-3 24.3 µM | NCI-H460 27.5 µM | SF-295 33.8 µM | SNB-75 24.8 µM | NCI-H226 45.3 µM | KM12 30.3 µM | SK-MEL-28 52.6 µM | K562 26.2 µM | SK-MEL-5 29.4 µM | Malme-3M 35.7 µM | MOLT-4 25.5 µM | ACHN 36.2 µM

CC1=C(C(=O)Nc2ccccc2)C(c2ccc([N+](=O)[O-])cc2)C(C(=O)Nc2ccccc2)=C(C)N1
inactive: NCI-H522 18.3 µM | OVCAR-5 40.9 µM | UACC-257 18.5 µM | SW-620 15.2 µM | A549 34 µM | OVCAR-3 21.7 µM | NCI-H460 21.1 µM | SF-295 22.4 µM | SNB-75 26.6 µM | NCI-H226 59.6 µM | KM12 15.8 µM | SK-MEL-28 31.5 µM | K562 15.4 µM | SK-MEL-5 24.1 µM | Malme-3M 34.2 µM | MOLT-4 7.05 µM | ACHN 37 µM

O=C1OC(CC(=O)c2ccccc2Cl)C(Cl)=C1Cl (configuration not stated)
inactive: NCI-H522 > 100 µM | OVCAR-5 > 100 µM | SK-OV-3 > 100 µM | UACC-257 > 100 µM | SW-620 > 100 µM | A549 > 100 µM | OVCAR-3 > 100 µM | NCI-H460 > 100 µM | SF-295 > 100 µM | NCI-H226 > 100 µM | KM12 > 100 µM | SK-MEL-28 > 100 µM | K562 > 100 µM | SK-MEL-5 > 100 µM | Malme-3M > 100 µM | MOLT-4 > 100 µM | ACHN > 100 µM

COC1OC(C)C(OC(=O)C(C)(C)C)C(C)(O)C1O (configuration not stated)
inactive: NCI-H522 > 100 µM | OVCAR-5 > 100 µM | UACC-257 > 100 µM | SW-620 > 100 µM | A549 > 100 µM | OVCAR-3 > 100 µM | NCI-H460 > 100 µM | SF-295 > 100 µM | NCI-H226 > 10 µM | KM12 > 100 µM | SK-MEL-28 > 100 µM | K562 > 100 µM | SK-MEL-5 > 100 µM | Malme-3M > 100 µM | MOLT-4 > 100 µM

C=CCOC(C)n1c(C)cc(=O)n(C(C)OCC=C)c1=O (configuration not stated)
inactive: NCI-H522 > 100 µM | SK-OV-3 > 100 µM | UACC-257 > 100 µM | SW-620 > 100 µM | A549 > 100 µM | SF-295 > 100 µM | SNB-75 > 100 µM | NCI-H226 > 100 µM | SK-MEL-28 > 100 µM | K562 > 100 µM | SK-MEL-5 > 100 µM | Malme-3M > 100 µM | MOLT-4 > 100 µM | ACHN > 100 µM

Nc1nc(N)c(N=O)c(Nc2ccc(Br)cc2)n1
inactive: NCI-H522 17.9 µM | OVCAR-5 31.2 µM | SK-OV-3 32.4 µM | UACC-257 15.6 µM | SW-620 33.5 µM | A549 41.9 µM | OVCAR-3 13.1 µM | NCI-H460 26.5 µM | SF-295 29 µM | SNB-75 10.4 µM | NCI-H226 32.2 µM | KM12 33.8 µM | SK-MEL-28 16.6 µM | K562 > 100 µM | Malme-3M 13.3 µM | ACHN 6.58 µM

CCOC(=O)NC(=O)c1cn(CCN2CCN(C(=O)NCCCCCCNC(=O)N3CCN(CCn4cc(C(=O)NC(=O)OCC)c(=O)[nH]c4=O)CC3)CC2)c(=O)[nH]c1=O
inactive: NCI-H522 > 100 µM | OVCAR-5 > 100 µM | SK-OV-3 > 100 µM | UACC-257 > 100 µM | SW-620 > 100 µM | A549 > 100 µM | OVCAR-3 > 100 µM | NCI-H460 > 100 µM | SF-295 > 100 µM | SNB-75 > 100 µM | KM12 > 100 µM | SK-MEL-28 > 100 µM | K562 > 100 µM | SK-MEL-5 > 100 µM | Malme-3M > 100 µM | ACHN > 100 µM

COC(=O)C(CC(C)=O)CS(=O)(=O)CC(=O)C(=O)Nc1cccc([N+](=O)[O-])c1 (configuration not stated)
inactive: NCI-H522 > 100 µM | OVCAR-5 > 100 µM | SK-OV-3 > 100 µM | UACC-257 > 100 µM | SW-620 > 100 µM | A549 > 100 µM | OVCAR-3 > 100 µM | NCI-H460 > 100 µM | SNB-75 > 100 µM | NCI-H226 > 100 µM | KM12 > 100 µM | SK-MEL-28 > 100 µM | K562 > 100 µM | SK-MEL-5 > 100 µM | Malme-3M > 100 µM | ACHN > 100 µM

COc1cc(/C=C\c2ccc(OC(C)=O)cc2)cc(OC)c1OC
inactive: NCI-H522 2.92 µM | OVCAR-5 62.7 µM | SK-OV-3 > 100 µM | UACC-257 2.48 µM | SW-620 3.36 µM | A549 6.62 µM | OVCAR-3 3.29 µM | NCI-H460 4.1 µM | SNB-75 2.2 µM | NCI-H226 33.7 µM | KM12 2.21 µM | SK-MEL-28 1.44 µM | K562 2.59 µM | Malme-3M 2.06 µM | MOLT-4 3.78 µM | ACHN 6.46 µM
